From patent US9604979B2, “Pyrroloquinoline quinone alcohol adduct” (Mitsubishi Gas Chemical Company, Inc., priority 2011, dated 2017)

Key:
[1] = Mixing with coenzyme Q10, color of the mixture; format: physicochemical; settings: weight ratio 1:1
Escherichia coli JM109 = assay: Effect on bacterial growth (viable bacteria count); format: cell-based; settings: 8 mg sample + 100 μL E. coli JM109 solution (turbidity at 660 nm 0.57), 30 minutes room temperature, then 900 μL PBS, LB agar 30° C., colonies
Method: Escherichia coli JM109 was cultivated overnight in an LB medium at 30° C. The cultivated Escherichia coli JM109 was diluted with a phosphate buffer (PBS) having pH of 7.4 manufactured by GIBCO to obtain a solution 1 having turbidity at 660 nm of 0.57. To 8 mg of each sample shown in Table 2, 100 μL of the solution 1 was added at room temperature, and after 30 minutes, 900 μL of PBS was further added to obtain a solution 2. The solution 2 was planted in a petri dish with an LB agar medium and cultivated at 30° C., and a viable bacteria count was determined from the number of colonies in the solution 2.

[2] = Stability test in polypropylene container in oven (change of color); format: physicochemical
Method: It is to be noted that 100 μL of ODO, Nisshin Oillio was used as an edible fat and oil.

[3] = High-performance liquid chromatography analysis: return of PQQ alcohol adduct to PQQ; format: physicochemical; settings: 1 mg/ML adduct in phosphate buffer pH 7.4, left at room temperature for 2 hours, HPLC
Method: The high-performance liquid chromatography analysis of the PQQ alcohol adduct or the like was performed as follows.
A column: YMC-Pack ODS-TMS (5 μm) 150×4.6 mm I.D. was arranged in a high-performance liquid chromatography LC-20A manufactured by Shimadzu Corporation, and detection was performed at 260 nm using an eluent of 100 mM CH3COOH/100 mM CH3COONH4 (30/70, pH 5.1) and an absorption detector.
The PQQ methanol adduct obtained in Example 1 was added to a phosphate buffer (manufactured by Invitrogen pH 7.4) to obtain 1 mg/ML of a PQQ methanol adduct solution. After the PQQ methanol adduct solution was left at room temperature for 2 hours, the high-performance liquid chromatography analysis was performed. […] That is, the PQQ methanol adduct obtained in Example 1 returned to the original PQQ free body by the addition of the phosphate buffer and being left at room temperature for 2 hours.

| Color of mixture with coenzyme Q10 [1] | Observation result after 7 days ([2]; 30° C., container's cover opened, 5 mg) | Discoloration in the opened state (container's cover opened) ([2]; Table 5) | Stability in the sealed state of the container ([2]; Table 5) | PQQ existing in the PQQ methanol adduct solution [3] | Structure (SMILES) | Viable bacteria count (Escherichia coli JM109) |
| --- | --- | --- | --- | --- | --- | --- |
| Brown |  |  |  |  | O=C([O-])c1cc(C(=O)[O-])c2c(n1)C(=O)C(=O)c1cc(C(=O)O)[nH]c1-2.[Na+].[Na+] [PQQ disodium] |  |
| Brown |  |  |  |  | O=C(O)c1cc(C(=O)O)c2c(n1)C(=O)C(=O)c1cc(C(=O)O)[nH]c1-2 [PQQ free body, Pyrroloquinoline quinone] | 80 |
| Yellow | Red powder | immediately discolored to red | stable | 0.92 mg/mL | COC1(O)C(=O)c2cc(C(=O)O)[nH]c2-c2c(C(=O)O)cc(C(=O)O)nc21 (stereo not drawn) [PQQ methanol adduct] | 0 |
